From paper PMC6934184, “Selective DNA-PKcs inhibition extends the therapeutic index of localized radiotherapy and chemotherapy” (The Journal of Clinical Investigation, 2019)

Molecular target: T1, ULK1 (Homo sapiens, UniProt O75385)
T1 construct: purchased Thermo Fisher Scientific (Life Technologies) SelectScreen
Assay: SelectScreen LanthaScreen
Assay type: binding
Conditions: 1 µM
How it was run: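 SelectScreen broad panel; activity (Z'LYTE, Adapta) plus binding formats. ATP: Km app for CSF1R Z'LYTE; 10 for CAMK1 Adapta. Readout = % per kinase.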

T1 sequence (O75385 whole entry): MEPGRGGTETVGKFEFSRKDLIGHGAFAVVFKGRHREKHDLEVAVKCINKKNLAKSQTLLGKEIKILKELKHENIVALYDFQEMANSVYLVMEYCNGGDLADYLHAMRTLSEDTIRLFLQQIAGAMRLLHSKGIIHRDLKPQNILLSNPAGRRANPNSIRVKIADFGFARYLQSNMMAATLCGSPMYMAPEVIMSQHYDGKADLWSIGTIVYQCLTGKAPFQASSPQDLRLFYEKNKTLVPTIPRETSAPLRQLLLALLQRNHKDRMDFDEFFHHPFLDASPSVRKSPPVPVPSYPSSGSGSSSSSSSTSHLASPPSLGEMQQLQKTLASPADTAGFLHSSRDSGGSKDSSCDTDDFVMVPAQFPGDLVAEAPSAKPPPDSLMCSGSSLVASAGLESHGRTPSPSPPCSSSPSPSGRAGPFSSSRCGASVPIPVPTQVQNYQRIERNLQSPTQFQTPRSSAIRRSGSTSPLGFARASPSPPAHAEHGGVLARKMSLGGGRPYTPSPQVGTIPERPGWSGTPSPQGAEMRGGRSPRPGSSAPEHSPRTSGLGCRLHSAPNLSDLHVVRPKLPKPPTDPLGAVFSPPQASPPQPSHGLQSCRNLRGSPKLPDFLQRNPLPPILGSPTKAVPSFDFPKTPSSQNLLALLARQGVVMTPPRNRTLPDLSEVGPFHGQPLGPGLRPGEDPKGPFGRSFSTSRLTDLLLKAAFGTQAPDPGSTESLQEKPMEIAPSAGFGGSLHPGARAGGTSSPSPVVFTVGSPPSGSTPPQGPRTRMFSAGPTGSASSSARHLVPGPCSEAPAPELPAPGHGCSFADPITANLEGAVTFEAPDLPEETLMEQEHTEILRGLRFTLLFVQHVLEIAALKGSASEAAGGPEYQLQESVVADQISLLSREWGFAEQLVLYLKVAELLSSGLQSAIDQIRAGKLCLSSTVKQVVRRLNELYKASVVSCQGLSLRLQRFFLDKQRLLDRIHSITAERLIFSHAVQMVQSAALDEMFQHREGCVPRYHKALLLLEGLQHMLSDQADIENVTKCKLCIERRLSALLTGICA

SMILES: CN(C(=O)CN1CCOCC1)c1ccc2sc3c(-c4cccc5c(=O)cc(N6CC7CCC(C6)O7)oc45)cccc3c2c1 [NU5455]
- % displacement: 1.8%
